IC50, inhibition and Activity data for three compounds are collected here from ChEMBL document CHEMBL5696439 (Cancer Res, 2010).

By IC50 is commonly meant the point on the concentration scale where inhibition reaches its midpoint.

Assay [1] has as its system MDA-MB-361. Briefly: Antiproliferative activity against human MDA-MB-361 cells assessed as cell growth inhibition incubated for 1 days by MTS assay. Particulars: MDA-MB-361, 24 h. The class given is functional, cell-based.
Assay [2] deals with MDA-MB-361. Briefly: Antiproliferative activity against human MDA-MB-361 cells assessed as cell growth inhibition incubated for 3 days by MTS assay. It is filed as functional, cell-based. Particulars: MDA-MB-361, 72 h.
Assay [3] relates to A498. Briefly: cells. Particulars: Homo sapiens, A498, 24 h.
Description: Antiproliferative activity against human A498 cells assessed as cell growth inhibition incubated for 1 days by MTS assay
In assay [4] the test system is MDA-MB-361. Briefly: Antiproliferative activity against human MDA-MB-361 cells assessed as cell growth inhibition incubated for 2 days by MTS assay. It is filed as functional, cell-based. The note with it: MDA-MB-361, 48 h. Background: Tetrazolium dyes change colour on reduction, which living cells bring about.
Assay [5] relates to A498. Kind of assay: cells. Particulars: Homo sapiens, A498, 48 h.
Description: Antiproliferative activity against human A498 cells assessed as cell growth inhibition incubated for 2 days by MTS assay
The test system of assay [6] is A498. Briefly: cells. The note with it: Homo sapiens, A498, 72 h.
Description: Antiproliferative activity against human A498 cells assessed as cell growth inhibition incubated for 3 days by MTS assay
In assay [7] the target is T1, Serine/threonine-protein kinase mTOR (Homo sapiens, UniProt P42345). Briefly: Inhibition of mTOR in human MDA-MB-361 cells assessed as 4EBP1 phosphorylation at T37/46 level at 1 micromol/L incubated 16 hrs by westernblot analysis. It is filed as cell-based. Particulars: dose 1.0 µmol/L.
For assay [8], the system named is MDA-MB-361. Kind of assay: Induction of apoptosis in PI3K/mTOR hyperactive human MDA-MB-361 cells assessed as cell death at 0.001 to 100 micromol/L incubated for 24 hrs by FACS analysis. Particulars: dose 0.001-100 µmol/L. It is filed as functional, cell-based. (A flow cytometer gives signals particle by particle.)
In assay [9] the test system is MDA-MB-361. Kind of assay: Induction of apoptosis in HER2 hyperactive human MDA-MB-361 cells assessed as cell death at 0.001 to 100 micromol/L incubated for 24 hrs by FACS analysis. The class given is functional, cell-based. The note with it: dose 0.001-100 µmol/L.
Assay [10] has as its system MDA-MB-361. Briefly: Induction of apoptosis in human MDA-MB-361 cells assessed as PARP cleavage at 0.5 to 5 micromol/L incubated for 48 hrs by Western blot analysis. The note with it: dose 0.5-5 µmol/L. It is filed as functional, cell-based. (In general: Immunoblotting shows a protein as a band on a membrane.)
Assay [11] relates to A549. Kind of assay: Antiproliferative activity against human A549 cells assessed as suppression in cell growth at 10 micromol/L incubated for 3 days by MTS assay relative to control. Particulars: dose 10 µmol/L; time 3 day; at 10 µM. The class given is functional.
Assay [12] concerns U-87 MG. Kind of assay: Antiproliferative activity against human U-87MG cells assessed as suppression in cell growth at 10 micromol/L incubated for 3 days by MTS assay relative to control. It is filed as functional, U-87MG ATCC. Particulars: dose 10 µmol/L; time 3 day; at 10 µM.
Assay [13] concerns U-87 MG. Briefly: Antitumor activity against human U-87MG cells assessed as lactate production incubated for 24 hrs. The class given is functional, cell-based. The note with it: U-87MG ATCC, dose 0.01-10 µmol/L.
The test system of assay [14] is A549. Kind of assay: Antitumor activity against VHL null-human A549 cells xenografted in female nude mouse model assessed as inhibition in tumor growth at 25 mg/kg, iv administered 5 times a week. The class given is functional, organism-based.
The test system of assay [15] is MDA-MB-361. Briefly: Antitumor activity against human MDA-MB-361 cells assessed as reduction in oxygen consumption rate at 1 micromol/L incubated for 1 hrs relative to control. It is filed as functional. The arrangement: scale not given: the % may be the effect or the level left. Particulars: dose 1 µmol/L, at 1 µM.
Assay [16] has as its system A498. Kind of assay: Antiproliferative activity against human A498 cells assessed as reduction in cell size at 1 micromol/L incubated for 48 hrs by Flow cytometry analysis relative to control. The arrangement: scale not given: the % may be the effect or the level left. The note with it: dose 1 µmol/L, at 1 µM. The class given is functional.
Assay [17] has as its system MDA-MB-361. Briefly: Inhibition of protein synthesis in human MDA-MB-361 cells at 3 micromol/L incubated for 3 hrs by [3H] methionine incorporation based scintillation counter analysis. It is filed as functional, cell-based. The note with it: dose 3.0 µmol/L.
A further assay concerns HEK293. Kind of assay: Antiproliferative activity against HEK293 cells assessed as reduction in polysomes at 0.5 micromol/L incubated for 16 hrs. The class given is functional, Homo sapiens. The note with it: dose 0.5 µmol/L.
Assay [18] concerns A549. Briefly: Antitumor activity against human A549 cells xenografted in female nude mouse model assessed as substantial regression in large tumor growth at 200 mg/kg, iv administered once a week. It is filed as functional, organism-based.
The subject of assay [19] is MDA-MB-361. Briefly: Antiproliferative activity against human MDA-MB-361 cells assessed as suppression in cell growth at 10 micromol/L incubated for 3 days by MTS assay relative to control. It is filed as functional. The note with it: dose 10 µmol/L; time 3 day; at 10 µM.
The subject of assay [20] is U-87 MG. Briefly: Antitumor activity against human U-87MG cells assessed as reduction in lactate production at 1 micromol/L incubated for 24 hrs relative to control. The arrangement: scale not given: the % may be the effect or the level left. It is filed as functional, U-87MG ATCC. Particulars: dose 1 µmol/L, at 1 µM.
For assay [21], the system named is A498. Briefly: Antiproliferative activity against human A498 cells assessed as suppression in cell growth at 10 micromol/L incubated for 3 days by MTS assay relative to control. The note with it: dose 10 µmol/L; time 3 day; at 10 µM. The class given is functional.
The test system of assay [22] is MDA-MB-361. Kind of assay: Induction of apoptosis in PI3K/mTOR hyperactive human MDA-MB-361 cells assessed as massive cell death at 0.001 to 100 micromol/L incubated for 48 hrs by FACS analysis. It is filed as functional, cell-based. Particulars: dose 0.001-100 µmol/L.
The subject of assay [23] is LNCaP. Briefly: Antiproliferative activity against human LNCaP cells assessed as suppression in cell growth at 10 micromol/L incubated for 3 days by MTS assay relative to control. The class given is functional. The note with it: dose 10 µmol/L; time 3 day; at 10 µM.
Assay [24] has as its target T1, Serine/threonine-protein kinase mTOR. Briefly: Inhibition of mTOR in human MDA-MB-361 cells assessed as 4EBP1 phosphorylation at T70 level at 1 micromol/L incubated 16 hrs by westernblot analysis. The class given is cell-based. The note with it: dose 1.0 µmol/L.
For assay [25] the target is unchanged. Briefly: Inhibition of mTOR in human MDA-MB-361 cells assessed as 4EBP1 phosphorylation at S65 level at 1 micromol/L incubated 16 hrs by westernblot analysis. Particulars: dose 1.0 µmol/L. The class given is cell-based.
In assay [26] the test system is MDA-MB-361. Briefly: Induction of apoptosis in HER2 hyperactive human MDA-MB-361 cells assessed as massive cell death at 0.001 to 100 micromol/L incubated for 48 hrs by FACS analysis. Particulars: dose 0.001-100 µmol/L. The class given is functional, cell-based.
The test system of assay [27] is LNCaP. Briefly: Induction of apoptosis in human LNCaP cells assessed as increase in caspase-3/caspase-7 activity at 1 to 6 uM incubated for 24 to 48 hrs. The class given is functional, cell-based. Particulars: dose 1-6 µM, time 24-48 hrs.
For assay [28], the system named is MDA-MB-361. Kind of assay: Induction of apoptosis in human MDA-MB-361 cells assessed as little increase in G1 phase at 5 micromol/L incubated for 12 hrs by FACS analysis relative to control. The note with it: dose 5.0 µmol/L. It is filed as functional, cell-based.
Assay [29] deals with MDA-MB-361. Kind of assay: Induction of apoptosis in human MDA-MB-361 cells assessed as increase in caspase-3/caspase-7 activity at 1 to 6 uM incubated for 24 to 48 hrs. The class given is functional, cell-based. Particulars: dose 1-6 µM, time 24-48 hrs.
The test system of assay [30] is MDA-MB-361. Briefly: Induction of apoptosis in human MDA-MB-361 cells assessed as increase in G1 phase at 5 micromol/L incubated for 24 hrs by FACS analysis relative to control. The class given is functional. The note with it: dose 5 µmol/L, at 5 µM.

In brackets after ≈: the same amount, converted by molar mass. Activity calls are given as the source filed them. The rule behind the calls is not given here. Some results are limits rather than exact numbers.

For the compound `CC(=O)O[C@H]1C(=O)[C@@]2(C)[C@H]([C@H](OC(=O)c3ccccc3)[C@]3(O)C[C@H](OC(=O)[C@H](O)[C@@H](NC(=O)c4ccccc4)c4ccccc4)C(C)=C1C3(C)C)[C@]1(OC(C)=O)CO[C@@H]1C[C@@H]2O` [PACLITAXEL], the IC50 was greater than 0.15 µg/mL with MDA-MB-361 [1]; 0.004 µg/mL (≈ 0.00468 µM) in the assay with MDA-MB-361 [2]; greater than 0.15 µg/mL with A498 [3]; greater than 0.15 µg/mL in the assay on MDA-MB-361 [4]; greater than 0.15 µg/mL in the assay with A498 [5]; 0.03 µg/mL (≈ 0.0351 µM) in the assay with A498 [6].
In the case of `CO[C@H]1C[C@@H]2CC[C@@H](C)[C@@](O)(O2)C(=O)C(=O)N2CCCC[C@H]2C(=O)O[C@H]([C@H](C)C[C@@H]2CC[C@@H](OC(=O)C(C)(CO)CO)[C@H](OC)C2)CC(=O)[C@H](C)/C=C(\C)[C@@H](O)[C@@H](OC)C(=O)[C@H](C)C[C@H](C)/C=C/C=C/C=C/1C` [TEMSIROLIMUS], the inhibition result (in [7]; in the assay with MDA-MB-361 [17]) was “inactive” throughout. Further, the result in the assay with MDA-MB-361 [8], with MDA-MB-361 [9], with MDA-MB-361 [10], with A549 [18], in the assay with MDA-MB-361 [22] and in the assay on MDA-MB-361 [26] was inactive. Further, the Activity entry is “<=50%” in the assay on A549 [11]; “<=50%” in the assay with U-87 MG [12]; “Dose-Dependent Effect” with U-87 MG [13]; 82% in the assay with MDA-MB-361 [15]; 97% with A498 [16]; 1.02 in the assay on HEK293. The Activity entry is “<=50%” in the assay with MDA-MB-361 [19], 80% with U-87 MG [20], “<=50%” in the assay with A498 [21] and “<=50%” with LNCaP [23]. Moreover, the inhibition entry (in the assay on A549 [14]; in assay [24]; in assay [25]) was “Active” in each case.
On to `Oc1cccc(-c2nc(N3CCOCC3)c3oc4ncccc4c3n2)c1` [PI-103], for which the result in the assay with LNCaP [27], in the assay on MDA-MB-361 [28] and in the assay with MDA-MB-361 [29] was Active. Further, the Activity in the assay on MDA-MB-361 [30] was found to be 27%.
